{
  "source": "paper PMC5983544",
  "about": "“Muscarinic M5 receptors modulate ethanol seeking in rats” (Neuropsychopharmacology, 2018)",
  "key": {"σ1 receptor": {"biological_target": "T1, σ1 receptor (Mus musculus, UniProt O55242)", "T1 construct": "from tissue; host or cells: mouse brain homogenates", "T1 sequence (O55242 whole entry)": "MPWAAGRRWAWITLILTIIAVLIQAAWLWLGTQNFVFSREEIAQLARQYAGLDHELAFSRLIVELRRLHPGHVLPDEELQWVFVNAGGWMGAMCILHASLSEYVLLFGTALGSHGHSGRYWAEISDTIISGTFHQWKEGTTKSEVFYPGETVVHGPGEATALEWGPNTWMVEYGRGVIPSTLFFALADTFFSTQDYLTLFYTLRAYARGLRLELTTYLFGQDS", "test": "[3H](+)-pentazocine binding in mouse brain homogenates", "settings": "ML375 at concentrations up to 10 μM", "procedure": "[^3H]NMS equilibrium binding assays in CHO-rM1 to CHO-rM5 cells were performed as previously described for CHO-hM5 cells. For [^35S]GTPγS binding, CHO-rM2 and CHO-rM4 cell membranes were prepared as described in Supplementary information. Membrane [^35S]GTPγS binding was performed as described in ref [26]., except GDP and [^35S]GTPγS concentrations were 1 μM and 0.3 nM, respectively. [^3H](+)-pentazocine binding was performed as described in ref. [27].\n(§1) Sigma-1 data are expressed as a percentage of specific [^3H]-(+)-pentazocine binding; ERK1/2 phosphorylation data are expressed percentage of the response to 10% FBS. Data represent the mean ± S.E.M. of 5-7 independent experiments performed in duplicate or triplicate."}, "[1]": {"biological_target": "T2, human cannabinoid 1 receptor (hCB1) (Homo sapiens, UniProt P21554)", "T2 construct": "expressed in transfected cells; host or cells: FlpIn CHO cells (Invitrogen)", "T2 sequence (P21554 whole entry)": "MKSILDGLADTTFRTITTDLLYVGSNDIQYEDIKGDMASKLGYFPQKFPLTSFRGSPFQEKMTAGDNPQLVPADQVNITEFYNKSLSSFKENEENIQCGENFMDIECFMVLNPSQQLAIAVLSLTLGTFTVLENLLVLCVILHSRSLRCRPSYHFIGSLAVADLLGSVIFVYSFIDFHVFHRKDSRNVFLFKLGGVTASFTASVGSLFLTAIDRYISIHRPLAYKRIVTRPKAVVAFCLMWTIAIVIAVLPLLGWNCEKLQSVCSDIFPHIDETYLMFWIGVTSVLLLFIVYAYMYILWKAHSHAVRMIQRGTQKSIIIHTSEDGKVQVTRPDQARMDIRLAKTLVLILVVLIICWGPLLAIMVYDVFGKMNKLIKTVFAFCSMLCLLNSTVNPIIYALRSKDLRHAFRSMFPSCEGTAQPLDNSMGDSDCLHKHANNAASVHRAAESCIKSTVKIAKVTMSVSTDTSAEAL", "test": "CHO-hCB1 ERK1/2 phosphorylation assay", "type": "cell-based", "procedure": "Rat mAChR subtypes (rM1–rM5; Origene) and human cannabinoid 1 receptor (hCB1; ref. [24]) constructs were isogenically integrated into FlpIn CHO cells (Invitrogen) and cells were selected in the presence of […] hygromycin B at 37 °C, 5% CO2, as previously described for the human M1 mAChR [25]. All cells were sub-cultured and seeded as previously described for the CHO-hM5 cells.\nThe IP-One assay kit (Cisbio) was used for the direct quantitative measurement of inositol phosphate (IP) accumulation in CHO-rM1, CHO-rM3 or CHO-rM5 cells, as described previously. The CHO-hCB1 pERK1/2 assays were performed as described in ref [24].\nas §1"}},
  "data": [
    {"compound": "O=C(c1ccc(F)c(F)c1)N1CCN2C(=O)c3ccccc3[C@@]12c1ccc(Cl)cc1", "note": "[ML375, (S)-9b-(4-chlorophenyl)-1-(3,4-difluorobenzoyl)-2,3-dihydro-1H-imidazo[2,1-a]isoi ndol-5(9bH)-one]", "values": [
      {"measurement": "effect on [3H](+)-pentazocine binding", "setting": "σ1 receptor", "result": "no apparent effect"},
      {"measurement": "effect in ERK1/2 phosphorylation assays", "setting": "[1]; CHO-hCB1, concentrations up to 10 μM", "result": "no apparent effect"},
      {"measurement": "agonist activity, ERK1/2 phosphorylation", "setting": "[1]; FlpIn-CHO hCB1, agonist mode", "result": "no agonist activity"},
      {"measurement": "inhibition of WIN 55212-2 (1µM)-stimulated ERK 1/2 phosphorylation", "setting": "[1]; FlpIn-CHO hCB1, antagonist mode", "result": "failed to inhibit"}
    ]}
  ]
}
